# Earlier results, collected in patent publication US20250099408A1, “IMPROVED SURAMIN METHODS AND COMPOSITIONS” (priority 2022, published 2025).
# Tested on: HIV
# Settings: suramin 1 g IV
smiles,measurement,setting,value
Cc1ccc(C(=O)Nc2ccc(S(=O)(=O)O)c3cc(S(=O)(=O)O)cc(S(=O)(=O)O)c23)cc1NC(=O)c1cccc(NC(=O)Nc2cccc(C(=O)Nc3cc(C(=O)Nc4ccc(S(=O)(=O)O)c5cc(S(=O)(=O)O)cc(S(=O)(=O)O)c45)ccc3C)c2)c1 [suramin],virus in the blood circulation,HIV patients,almost clearing the virus from the blood circulation
same,clinical improvement of the patients,,did not give clinical improvements
